These results are taken from publication PMC11108826 (Synthetic and Systems Biotechnology, 2024).

Usually Kd stands for the concentration at which binding is half-saturated. High values mean weaker binding, low ones tighter binding.

This test addresses T1, ORF-L16 (Saccharopolyspora spinosa, UniProt Q9ALP2).
T1 sequence (Q9ALP2 1-278): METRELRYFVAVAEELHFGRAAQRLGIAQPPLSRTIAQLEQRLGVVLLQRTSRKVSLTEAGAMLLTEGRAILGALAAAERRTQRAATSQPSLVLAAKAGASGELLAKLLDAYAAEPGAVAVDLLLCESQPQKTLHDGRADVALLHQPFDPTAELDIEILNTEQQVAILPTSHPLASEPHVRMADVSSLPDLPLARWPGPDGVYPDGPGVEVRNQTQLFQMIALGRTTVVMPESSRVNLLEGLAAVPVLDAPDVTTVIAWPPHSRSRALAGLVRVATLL
Kind of test: isothermal titration calorimetry. The test is classed as binding. For orientation: In ITC the heat of successive injections is recorded.

Each structure is given as a SMILES string.

For the compound `CC[C@H]1CCC[C@H](O[C@H]2CC[C@H](N(C)C)[C@@H](C)O2)[C@@H](C)C(=O)C2=C[C@@H]3[C@@H](C=C[C@@H]4C[C@@H](O[C@@H]5O[C@@H](C)[C@H](OC)[C@@H](OC)[C@H]5OC)C[C@@H]34)[C@@H]2CC(=O)O1` [spinosyn A], the dissociation constant (Kd) turned out to be 2.36 ± 0.04 µM.
